Measurements from article PMC10353060, “A Chemical Chaperone Restores Connexin 26 Mutant Activity” (ACS Pharmacology & Translational Science, 2023).

Columns and labels:
connexin 26 (Cx26) K188N = molecular target: T1, connexin 26 (Cx26) K188N (Homo sapiens, UniProt P29033, K188N); experiment: microscale thermophoresis (MST); assay type: binding; details: read-out: EC50
T1 construct: gene GJB2; purified recombinant connexin channel, His-tag Cy5 labeled

connexin 26 (Cx26) = molecular target: T2, connexin 26 (Cx26) (Homo sapiens, UniProt P29033); experiment: microscale thermophoresis (MST); assay type: binding; details: read-out: EC50
T2 construct: gene GJB2; purified recombinant WT connexin channel, His-tag Cy5 labeled

## O=C(Nc1ncc([C@H](c2ccccc2Cl)N2CC[C@@H](O)C2)s1)C1(c2ccc3c(c2)OCO3)CC1 [compound 3, 1-(benzo[d][1,3]dioxol-5-yl)-N-(5-((S)-(2-chlorophenyl)((R)-3-hydroxypyrrolidin-1-yl)methyl)thiazol-2-yl) cyclopropanecarboxamide]
Connexin 26 (Cx26) K188N
  Kd: 4.75 ± 1 µM
Connexin 26 (Cx26)
  Kd: 19.3 ± 7.3 µM
